# Experimental data taken from paper doi:10.1101/2021.10.07.463234v2 (biorxiv, 2021).
# Structures can show the parent of a compound that is named as a salt.
# Target: SARS-CoV-2 Mac1 (Severe acute respiratory syndrome coronavirus 2, UniProt P0DTD1)
# Test: biochemical
# Details: for inhibition at 100 µM: read-out: %inhibition; for %inhibition: 100 µM, inhibitor
structure (smiles),measurement,value
CCOC(=O)C1=C(C)NC(C)=C(C(=O)OC)C1c1cccc([N+](=O)[O-])c1 (stereo not drawn) [Nitrendipine],inhibition at 100 µM,4.31%
NC(=O)N/N=C/c1ccc([N+](=O)[O-])o1 [Nitrofural],inhibition at 100 µM,0%
O=C1CN(/N=C/c2ccc([N+](=O)[O-])o2)C(=O)N1 [Nitrofurantoin],inhibition at 100 µM,4.04%
O=[N+]([O-])c1ccc(O)c2ncccc12 [Nitroxoline],inhibition at 100 µM,0%
CNC(=C[N+](=O)[O-])NCCSCc1csc(CN(C)C)n1 [Nizatidine],inhibition at 100 µM,46.1%
CCCCCCCCC(=O)NCc1ccc(O)c(OC)c1 [Nonivamide],inhibition at 100 µM,1.16%
NC[C@H](O)c1ccc(O)c(O)c1 [Noradrenaline bitartrate monohydrate],inhibition at 100 µM,18.9%
C#C[C@]1(O)CC[C@H]2[C@@H]3CCC4=CC(=O)CC[C@@H]4[C@H]3CC[C@@]21C [Norethindrone],inhibition at 100 µM,0%
CCn1cc(C(=O)O)c(=O)c2cc(F)c(N3CCNCC3)cc21 [Norfloxacin],inhibition at 100 µM,24.7%
C#CC1(O)CC[C@H]2[C@@H]3CCC4=CC(=O)CC[C@@H]4[C@H]3CC[C@@]21CC (stereo partly drawn) [Norgestrel],inhibition at 100 µM,0%
CNCCC=C1c2ccccc2CCc2ccccc21 [Nortriptyline hydrochloride],inhibition at 100 µM,0%
OC1C[C@H]2CC[C@@H](C1)N2 (stereo partly drawn) [Nortropine Hydrochloride],inhibition at 100 µM,6.37%
CO[C@@H]1[C@@H](OC(N)=O)[C@@H](O)[C@H](Oc2ccc3c(O)c(NC(=O)c4ccc(O)c(CC=C(C)C)c4)c(=O)oc3c2C)OC1(C)C [Novobiocin Sodium],inhibition at 100 µM,0%
CC[C@H]1[C@@H](O)[C@@H]2[C@H](CC[C@]3(C)[C@@H]([C@H](C)CCC(=O)O)CC[C@@H]23)[C@@]2(C)CC[C@@H](O)C[C@@H]12 [Obeticholic Acid],inhibition at 100 µM,37.3%
CNS(=O)(=O)C[C@H]1CC[C@H](N(C)c2[nH]cnc3nccc2-3)CC1 [Oclacitinib?maleate],inhibition at 100 µM,0%
CCCCCCCCN=c1ccn(CCCCCCCCCCn2ccc(=NCCCCCCCC)cc2)cc1 [Octenidine Dihydrochloride],inhibition at 100 µM,16%
CCCCC(CC)COC(=O)C=Cc1ccc(OC)cc1 (stereo not drawn) [Octinoxate],inhibition at 100 µM,0%
CCCCC(CC)COC(=O)C(C#N)=C(c1ccccc1)c1ccccc1 (stereo not drawn) [Octocrylene],inhibition at 100 µM,0%
"O=C(c1cc(Cc2n[nH]c(=O)c3ccccc23)ccc1F)N1CCN(C(=O)C2CC2)CC1 [Olaparib (AZD2281, Ku-0059436)]",inhibition at 100 µM,20.2%
CCCc1nc(C(C)(C)O)c(C(=O)OCc2oc(=O)oc2C)n1Cc1ccc(-c2ccccc2-c2nnn[nH]2)cc1 [Olmesartan Medoxomil],inhibition at 100 µM,0%
CCCc1nc(C(C)(C)O)c(C(=O)O)n1Cc1ccc(-c2ccccc2-c2nnn[nH]2)cc1 [Olmesartan],inhibition at 100 µM,0%
"C=CC(=O)Nc1cccc(Oc2nc(Nc3ccc(N4CCN(C)CC4)cc3)nc3ccsc23)c1 [Olmutinib (HM61713, BI 1482694)]",inhibition at 100 µM,22.3%
CN(C)CC/C=C1/c2ccccc2COc2ccc(CC(=O)O)cc21 [Olopatadine HCl],inhibition at 100 µM,2.14%
Cc1[nH]c(=O)c(C#N)cc1-c1ccc2nccn2c1 [Olprinone],inhibition at 100 µM,0%
O=C(O)c1cc(/N=N/c2ccc(O)c(C(=O)O)c2)ccc1O [Olsalazine Sodium],inhibition at 100 µM,11.8%
Cc1c(-c2cnccn2)ssc1=S [Oltipraz],inhibition at 100 µM,0%
CS(=O)(=O)n1cc2c(n1)CN([C@H]1CO[C@H](c3cc(F)ccc3F)[C@@H](N)C1)C2 [Omarigliptin (MK-3102)],inhibition at 100 µM,0%
"COc1ncc(-c2ccc3nccc(-c4ccnnc4)c3c2)cc1NS(=O)(=O)c1ccc(F)cc1F [Omipalisib (GSK2126458, GSK458)]",inhibition at 100 µM,7.47%
CC(C)c1cc(C(=O)N2Cc3ccc(CN4CCN(C)CC4)cc3C2)c(O)cc1O [Onalespib (AT13387)],inhibition at 100 µM,5.85%
Cc1nccn1CC1CCc2c(c3ccccc3n2C)C1=O (stereo not drawn) [Ondansetron Hydrochloride Dihydrate],inhibition at 100 µM,0%
"Cc1[nH]c(/C=C2\C(=O)Nc3ccccc32)c(C)c1CCC(=O)O [Orantinib (TSU-68, SU6668)]",inhibition at 100 µM,16.7%
CCCCCCCCCCC[C@@H](C[C@@H]1OC(=O)[C@H]1CCCCCC)OC(=O)[C@H](CC(C)C)NC=O [Orlistat],inhibition at 100 µM,0%
Cc1ncc([N+](=O)[O-])n1CC(O)CCl (stereo not drawn) [Ornidazole],inhibition at 100 µM,17.6%
O=C(O)c1cc(=O)[nH]c(=O)[nH]1 [Orotic acid (6-Carboxyuracil)],inhibition at 100 µM,0%
CCOC(=O)C1=C[C@@H](OC(CC)CC)[C@H](NC(C)=O)[C@@H](N)C1 [Oseltamivir Phosphate],%inhibition,4.261%
C=CC(=O)Nc1cc(Nc2nccc(-c3cn(C)c4ccccc34)n2)c(OC)cc1N(C)CCN(C)C [Osimertinib (AZD9291)],inhibition at 100 µM,0%
OCCOc1ccc(/C(=C(/CCCl)c2ccccc2)c2ccccc2)cc1 [Ospemifene],inhibition at 100 µM,16.8%
CCNC1(C(N)=O)CCN(c2ncnc3c2nc(-c2ccccc2Cl)n3-c2ccc(Cl)cc2)CC1 [Otenabant (CP-945598) HCl],inhibition at 100 µM,2.29%
CCCCCCCCOc1ccccc1C(=O)Nc1ccc(C(=O)OCC[N+](C)(CC)CC)cc1 [Otilonium Bromide],inhibition at 100 µM,11%
C[C@@H]1O[C@@H](O[C@H]2C[C@@H](O)[C@]3(CO)[C@H]4[C@H](O)C[C@]5(C)[C@@H](C6=CC(=O)OC6)CC[C@]5(O)[C@@H]4CC[C@]3(O)C2)[C@H](O)[C@H](O)[C@H]1O [Ouabain],inhibition at 100 µM,0%
CC(=O)N1C[C@H](O)C[C@H]1C(=O)O [Oxaceprol],inhibition at 100 µM,0%
Cc1onc(-c2ccccc2)c1C(=O)N[C@@H]1C(=O)N2[C@@H]1SC(C)(C)[C@@H]2C(=O)O [Oxacillin sodium monohydrate],inhibition at 100 µM,0%
O=C(O)CCc1nc(-c2ccccc2)c(-c2ccccc2)o1 [Oxaprozin],inhibition at 100 µM,11.8%
NC(=O)N1c2ccccc2CC(=O)c2ccccc21 [Oxcarbazepine],inhibition at 100 µM,0%
CCN(CC)CCOCCOC(=O)C(CC)(CC)c1ccccc1 [Oxeladin Citrate],inhibition at 100 µM,0.462%
CN(C(=O)CN(CCO)CC(=O)N(C)C(C)(C)Cc1ccccc1)C(C)(C)Cc1ccccc1 [Oxethazaine],inhibition at 100 µM,19.2%
COC(=O)Nc1nc2cc([S+]([O-])c3ccccc3)ccc2[nH]1 (stereo not drawn) [Oxfendazole],inhibition at 100 µM,0%
NCCc1cc(O)c(O)cc1O [Oxidopamine (hydrobromide)],inhibition at 100 µM,0%
NC(=O)CN1CC(O)CC1=O (stereo not drawn) [Oxiracetam],inhibition at 100 µM,21.6%
COc1ccc(C(=O)c2ccccc2)c(O)c1 [Oxybenzone],inhibition at 100 µM,0.0343%
CCCCOc1cc(C(=O)OCCN(CC)CC)ccc1N [Oxybuprocaine HCl],inhibition at 100 µM,8.43%
O=C(Nc1cc(Cl)cc(Cl)c1O)c1c(O)c(Cl)cc(Cl)c1Cl [Oxyclozanide],inhibition at 100 µM,8.75%
CN(C)[C@@H]1C(=O)C(C(N)=O)=C(O)[C@@]2(O)C(=O)C3=C(O)c4c(O)cccc4[C@@](C)(O)C3[C@H](O)C12 (stereo partly drawn) [Oxytetracycline (Terramycin)],inhibition at 100 µM,15.9%
CN(C)[C@@H]1C(O)=C(C(N)=O)C(=O)[C@@]2(O)C(O)=C3C(=O)c4c(O)cccc4[C@@](C)(O)[C@H]3[C@H](O)[C@@H]12 [Oxytetracycline Dihydrate],inhibition at 100 µM,0%
O=C(O)/C=C/c1ccc(Cn2ccnc2)cc1 [Ozagrel HCl],%inhibition,0%
O=C(O)/C=C/c1ccc(Cn2ccnc2)cc1 [Ozagrel sodium],%inhibition,1.667%
O=C(O)/C=C/c1ccc(Cn2ccnc2)cc1 [Ozagrel],%inhibition,4.368%
CC(C)Oc1ccc(-c2nc(-c3cccc4c3CC[C@@H]4NCCO)no2)cc1C#N [Ozanimod (RPC1063)],inhibition at 100 µM,0%
CC(=O)O[C@H]1C(=O)[C@@]2(C)[C@H]([C@H](OC(=O)c3ccccc3)[C@]3(O)C[C@H](OC(=O)[C@H](O)[C@@H](NC(=O)c4ccccc4)c4ccccc4)C(C)=C1C3(C)C)[C@]1(OC(C)=O)CO[C@@H]1C[C@@H]2O [Paclitaxel],inhibition at 100 µM,6.04%
C1=N/C2=N/c3ccc(OCCN4CCCC4)c(c3)COC/C=C/COCc3cccc(c3)C(=C1)N2 [Pacritinib (SB1518)],inhibition at 100 µM,0%
CC(=O)c1c(C)c2cnc(Nc3ccc(N4CCNCC4)cn3)nc2n(C2CCCC2)c1=O [Palbociclib (PD-0332991) HCl],inhibition at 100 µM,0%
Cc1nc2n(c(=O)c1CCN1CCC(c3noc4cc(F)ccc34)CC1)CCCC2O (stereo not drawn) [Paliperidone],inhibition at 100 µM,1.55%
O=C1c2cccc3c2[C@H](CCC3)CN1[C@@H]1CN2CCC1CC2 [Palonosetron HCl],inhibition at 100 µM,0%
NCCC(O)(P(=O)(O)O)P(=O)(O)O [Pamidronate Disodium],inhibition at 100 µM,0.654%
CC(=O)O[C@H]1C[C@@H]2CC[C@@H]3[C@H](CC[C@@]4(C)[C@H]3C[C@H]([N+]3(C)CCCCC3)[C@@H]4OC(C)=O)[C@@]2(C)C[C@@H]1[N+]1(C)CCCCC1 [Pancuronium dibromide],inhibition at 100 µM,0%
Cc1[nH]c2ccccc2c1CCNCc1ccc(/C=C/C(=O)NO)cc1 [Panobinostat (LBH589)],inhibition at 100 µM,7.31%
COc1ccnc(C[S+]([O-])c2nc3cc(OC(F)F)ccc3[nH]2)c1OC (stereo not drawn) [Pantoprazole sodium],%inhibition,0%
COc1ccnc(C[S+]([O-])c2nc3cc(OC(F)F)ccc3[nH]2)c1OC (stereo not drawn) [Pantoprazole],%inhibition,6.936%
CCC(=O)NS(=O)(=O)c1ccc(-c2c(-c3ccccc3)noc2C)cc1 [Parecoxib Sodium],%inhibition,8.572%
CCC(=O)NS(=O)(=O)c1ccc(-c2c(-c3ccccc3)noc2C)cc1 [Parecoxib],%inhibition,0%
C#CCN(C)Cc1ccccc1 [Pargyline hydrochloride],inhibition at 100 µM,0%
Cc1cnc(C(=O)N[C@H]2CCCCC/C=C\[C@@H]3C[C@@]3(C(=O)NS(=O)(=O)C3CC3)NC(=O)[C@@H]3C[C@@H](Oc4nc5ccccc5c5ccccc45)CN3C2=O)cn1 [Paritaprevir (ABT-450)],inhibition at 100 µM,0%
